Patent publication US20050090529A1, “3,5 Disubstituted indazole compounds with nitrogen-bearing 5-membered heterocycles, pharmaceutical compositions, and methods for mediating or inhibiting cell proliferation” (PFIZER INC, priority 2003, published 2005)

The compounds below were run on Cyclin-dependent kinase (assay: Cyclin-dependent kinase inhibition, % inhibition at 10 nM (library Examples 99-270)). Settings: 10 nM compound.
Assay type: biochemical
Protocol: Cyclin-dependent kinase activity was measured by quantifying the enzyme-catalyzed, time-dependent incorporation of radioactive phosphate from [^32P]ATP or [^33P]ATP into a protein substrate. Unless noted otherwise, assays were performed in 96-well plates in a total volume of 50 μL, in the presence of 10 mM HEPES (N-[2-hydroxyethyl]piperazine-N′-[2-ethanesulfonic acid]) (pH 7.4), 10 mM MgCl2, 25 μM adenosine triphosphate (ATP), 1 mg/mL ovalbumin, 5 μg/mL leupeptin, 1 mM dithiothreitol, 10 mM beta-glycerophosphate, 0.1 mM sodium vanadate, 1 mM sodium fluoride, 2.5 mM ethylene glycol-bis(β-aminoethyl ethKer)-N,N,N′N′-tetraacetic acid (EGTA), 2% (v/v) dimethylsulfoxide, and 0.03-0.4 μCi [^32/33P]ATP per reaction. Reactions were initiated with enzyme, incubated at 30° C., and terminated after 20 minutes by the addition of ethylenediaminetetraacetic acid (EDTA) to 250 mM. The phosphorylated substrate was then captured on a nitrocellulose or phosphocellulose membrane using a 96-well filtration manifold, and unincorporated radioactivity was removed by repeated washing with 0.85% phosphoric acid. Radioactivity was quantified by exposing the dried membranes to a phosphorimager.
Results of assays performed on compounds, which include the specific examples described above are provided in Examples 99-274 above, and in Table 1 below. Unless indicated otherwise in a particular entry, the units and assays used are as indicated in the applicable column of the table.

SMILES	% Inhib @ 10 nM [%]
CCNCc1cncc(-c2ccc3[nH]nc(-c4ncc(C(=O)NCCCn5ccnc5)[nH]4)c3c2)c1C [Example 99, 2-(5-{5-[(ethylamino)methy]-4-methylpyridin-3-yl}-1H-indazol-3-yl)-N-[3-(1H-imidazol-1-yL)propyl]-1H-imidazole-5-carboxamide]	39
CCNCc1cncc(-c2ccc3[nH]nc(-c4ncc(C(=O)NC(C)CO)[nH]4)c3c2)c1C (stereo not shown) [Example 100]	65
CCNCc1cncc(-c2ccc3[nH]nc(-c4ncc(C(=O)NCc5cccnc5)[nH]4)c3c2)c1C [Example 101]	54
CCNCc1cncc(-c2ccc3[nH]nc(-c4ncc(C(=O)NCCc5ccccn5)[nH]4)c3c2)c1C [Example 102]	81
CCNCc1cncc(-c2ccc3[nH]nc(-c4ncc(C(=O)NCCN5CCOCC5)[nH]4)c3c2)c1C [Example 103, 2-(5-{5-[(ethylamino)methyl]-4-methylpyridin-3-yl}-1H-indazol-3-yl)-N-(2-morpholin-4-ylethyl)-1H-imidazole-5-carboxamide]	40
CCNCc1cncc(-c2ccc3[nH]nc(-c4ncc(C(=O)NCCOCCO)[nH]4)c3c2)c1C [Example 104]	54
CCNCc1cncc(-c2ccc3[nH]nc(-c4ncc(C(=O)N[C@H](c5ccccc5)[C@@H](O)c5ccccc5)[nH]4)c3c2)c1C [Example 105, 2-(5-{5-[(ethylamino)methyl]-4-methylpyridin-3-yl}-1H-indazol-3-yl)-N-[(1R,2S)-2-hydroxy-1,2-diphenylethyl]-1H-imidazole-5-carboxamide]	74
CCNCc1cncc(-c2ccc3[nH]nc(-c4ncc(C(=O)NCc5ccccc5OC)[nH]4)c3c2)c1C [Example 106]	78
CCNCc1cncc(-c2ccc3[nH]nc(-c4ncc(C(=O)N5CCC(n6c(=O)[nH]c7ccccc76)CC5)[nH]4)c3c2)c1C [Example 107]	59
CCNCc1cncc(-c2ccc3[nH]nc(-c4ncc(C(=O)N[C@H](Cc5ccccc5)C(N)=O)[nH]4)c3c2)c1C [Example 108, N-{[2-(5-{5-[(ethylamino)methyl]-4-methylpyridin-3-yl}-1H-indazol-3-yl)-1H-imidazol-5-yl]carbonyl}-D-phenylalaninamide]	57
CCNCc1cncc(-c2ccc3[nH]nc(-c4ncc(C(=O)NCC(N)=O)[nH]4)c3c2)c1C [Example 109, N-(2-amino-2-oxoethyl)-2-(5-{5-[(ethylamino)methyl]-4-methylpyridin-3-yl}-1H-indazol-3-yl)-1H-imidazole-5-carboxamide]	69
CCNCc1cncc(-c2ccc3[nH]nc(-c4ncc(C(=O)NCC5CCCO5)[nH]4)c3c2)c1C (stereo not shown) [Example 110, 2-(5-{5-[(ethylamino)methyl]-4-methylpyridin-3-yl}-1H-indazol-3-yl)-N-(tetrahydrofuran-2-ylmethyl)-1H-imidazole-5-carboxamide]	66
CCNCc1cncc(-c2ccc3[nH]nc(-c4ncc(C(=O)N[C@@H](CO)[C@@H](O)c5ccc(SC)cc5)[nH]4)c3c2)c1C [Example 111, 2-(5-{5-[(ethylamino)methyl]-4-methylpyridin-3-yl}-1H-indazol-3-yl)-N-{(1S,2S)-2-hydroxy-1-(hydroxymethyl)-2-[4-(methylthio)phenyl]ethyl}-1H-imidazole-5-carboxamide]	73
CCNCc1cncc(-c2ccc3[nH]nc(-c4ncc(C(=O)N5CCC(O)(c6ccccc6)CC5)[nH]4)c3c2)c1C [Example 112, 1-{[2-(5-{5-[(ethylamino)methyl]-4-methylpyridin-3-yl}-1H-indazol-3-yl)-1H-imidazol-5-yl]carbonyl}-4-phenylpiperidin-4-ol]	80
CCNCc1cncc(-c2ccc3[nH]nc(-c4ncc(C(=O)N5CCC(C#N)(c6ccccc6)CC5)[nH]4)c3c2)c1C [Example 113, 1-{[2-(5-{5-[(ethylamino)methyl]-4-methylpyridin-3-yl}-1H-indazol-3-yl)-1H-imidazol-5-yl]carbonyl}-4-phenylpiperidine-4-carbonitrile]	61
CCNCc1cncc(-c2ccc3[nH]nc(-c4ncc(C(=O)NCCc5cccc(OC)c5)[nH]4)c3c2)c1C [Example 114, 2-(5-{5-[(ethylamino)methyl]-4-methylpyridin-3-yl}-1H-indazol-3-yl)-N-[2-(3-methoxyphenyl)ethyl]-1H-imidazole-5-carboxamide]	64
CCNCc1cncc(-c2ccc3[nH]nc(-c4ncc(C(=O)N5CCN(c6ccccn6)CC5)[nH]4)c3c2)c1C [Example 115, ethyl{[4-methyl-5-(3-{5-[(4-pyridin-2-piperazin-1-yl)carbonyl]-1H-imidazol-yl}-1H-indazol-5-yl)pyridin-3-yl]methyl}amine]	72

SMILES	% Inhib @ 10 nM [%]
CCNCc1cncc(-c2ccc3[nH]nc(-c4ncc(C(=O)N5CCN(C(C)=O)CC5)[nH]4)c3c2)c1C [Example 116]	66
CCNCc1cncc(-c2ccc3[nH]nc(-c4ncc(C(=O)N5CCN(Cc6ccccc6)CC5)[nH]4)c3c2)c1C [Example 117]	72
CCNCc1cncc(-c2ccc3[nH]nc(-c4ncc(C(=O)N5CCN(CC(=O)NC(C)C)CC5)[nH]4)c3c2)c1C [Example 118, 2-(4-{[2-(5-{5-[(ethylamino)methyl]-4-methylpyridin-3-yl}-1H-indazol-3-yl)-1H-imidazol-5-yl]carbonyl}piperazin-1-yl)-N-isopropylacetamide]	44
CCNCc1cncc(-c2ccc3[nH]nc(-c4ncc(C(=O)N5CCCN(C)CC5)[nH]4)c3c2)c1C [Example 119, ethyl{(4-methyl-5-(3-{5-[(4-methyl-1,4-diazepan-1-yl)carbonyl]-1H-imidazol-2-yl}-1H-indazol-5-yl)pyridin-3-yl]methyl}amine]	38
CCNCc1cncc(-c2ccc3[nH]nc(-c4ncc(C(=O)NCCc5c[nH]c6cc(OC)ccc56)[nH]4)c3c2)c1C [Example 120]	45
CCNCc1cncc(-c2ccc3[nH]nc(-c4ncc(C(=O)N5CCc6cc(OC)c(OC)cc6C5)[nH]4)c3c2)c1C [Example 121, {[5-(3-{5-[(6,7-dimethoxy-3,4-dihydroisoquinolin-2(1H)-yl)carbonyl}-1H-imidazol-2-yl}-1H-indazol-5-yl)-4-methylpyridin-3-yl]methyl)ethylamine]	69
CCNCc1cncc(-c2ccc3[nH]nc(-c4ncc(C(=O)N(C)CCCN(C)C)[nH]4)c3c2)c1C [Example 122]	30
CCNCc1cncc(-c2ccc3[nH]nc(-c4ncc(C(=O)N(CCN(C)C)Cc5ccccc5)[nH]4)c3c2)c1C [Example 123, N-benzyl-N-[2-(dimethylamino)ethyl]-2-(5-{5-[(ethylamino)methyl]-4-methylpyridin-3-yl}-1H-indazol-3-yl)-1H-imidazale-5-carboxamide]	54
CCNCc1cncc(-c2ccc3[nH]nc(-c4ncc(C(=O)N(CCO)Cc5ccccc5)[nH]4)c3c2)c1C [Example 124, N-benzyl-2-(5-{5-[(ethylamino)methyl]-4-methylpyridin-3-yl}-1H-indazol-3-yl)-N-(2-hydroxyethyl)-1H-imidazole-5-carboxamide]	56
CCNCc1cncc(-c2ccc3[nH]nc(-c4ncc(C(=O)N5CCN(CCO)CC5)[nH]4)c3c2)c1C [Example 125, 2-(4-{[2-(5-{5-[(ethylamino)methyl]-4-methylpyridin-3-yl}-1H-indazol-3-yl)-1H-imidazol-5-yl]carbonyl}piperazin-1-yl)ethanol]	40
CCNCc1cncc(-c2ccc3[nH]nc(-c4ncc(C(=O)NC5C6CC7CC(C6)CC5C7)[nH]4)c3c2)c1C (stereo not shown) [Example 126, N-2-adamantyl-2-(5-{5-[(ethylamino)methyl]-4-methylpyridin-3-yl}-1H-indazol-3-yl)-1H-imidazole-5-carboxamide]	89
CCNCc1cncc(-c2ccc3[nH]nc(-c4ncc(C(=O)N5CCN(CC(=O)N6CCOCC6)CC5)[nH]4)c3c2)c1C [Example 127, ethyl({4-methyl-5-[3-(5-{[4-(2-morpholin-4-yl-2-oxoethyl)piperazin-1-yl]carbonyl}-1H-imidazol-2-yl)-1H-indazol-5-yl]pyridin-3-yl}methyl)amine]	26
CCNCc1cncc(-c2ccc3[nH]nc(-c4ncc(C(=O)N5CCC(NC(C)=O)C5)[nH]4)c3c2)c1C (stereo not shown) [Example 129]	55
CCNCc1cncc(-c2ccc3[nH]nc(-c4ncc(C(=O)NCCCN5CCCC5=O)[nH]4)c3c2)c1C [Example 130]	28
CCNCc1cncc(-c2ccc3[nH]nc(-c4ncc(C(=O)NCCC5=CCCCC5)[nH]4)c3c2)c1C [Example 131]	57
CCNCc1cncc(-c2ccc3[nH]nc(-c4ncc(C(=O)N(CC)CC)[nH]4)c3c2)c1C [Example 132, N,N-diethyl-2-(5-{5-[(ethylamino)methyl]-4-methylpyridin-3-yl}-1H-indazol-3-yl)-1H-imidazxole-5-carboxamide]	80
CCNCc1cncc(-c2ccc3[nH]nc(-c4ncc(C(=O)N5CCN(c6c(C)cccc6C)CC5)[nH]4)c3c2)c1C [Example 133]	67
